Measured values from PMC12675575, “A BRET biosensor for measuring uncompetitive engagement of PRMT5 complexes in cells” (Nature Communications, 2025).
“And” between values parts separate entries of the source, which are not always exact repeats. Equal values may be shown once.

Columns and labels:
NLuc-PRMT5 = NLuc-PRMT5 (Homo sapiens, UniProt O14744); assay: SAM titration against CBH-002 in HEK293 cell lysate (linear range of SAM detection); format: binding; parameters: host or cells: HEK293 (live cells; digitonin lysate for the SAM titration); conditions: for EC50: Figure S3B; for BRET signal, CBH-002 titration (Figure S3A): Log[CBH-002]
Method: To determine the linear range of SAM detection, HEK293 cells expressing NLuc-PRMT5 were lysed by addition of a 10x digitonin solution (Sigma), 500 µg/mL in Opti-MEM) and treated with a 1 mM, 4-fold, 11 pt dose-response series of SAM (Sigma) and a 1 µM 2-fold, 8 pt dose-response series of CBH-002. Lysate was incubated at RT for 30 min prior to reading BRET. Data was normalized using Eq. (2) above, with BRETMIN = BRET signal at lowest [CBH-002] + 0 µM SAM, and BRETMAX = BRET signal at 1 µM CBH-002 + 1 mM SAM. Data were fit using Eq. (3), and CBH-002 EC50 was plotted against [SAM] to determine the linear range of detection.

NL-PRMT5 = target: T1, NL-PRMT5 (Homo sapiens, UniProt O14744); assay: CBH-002 affinity curve, HEK293, NL-PRMT5 fusion with empty carrier DNA (no WDR77); format: cell-based; parameters: unit not given here; conditions: Figure S2A NL-PRMT5, log([CBH-002])
T1 construct: host or cells: HEK293
Method: HEK293 cells (ATCC) were cultured in DMEM (Thermo Fisher) + 10% (v/v) FBS (Seredigm), and HCT116 cells (Horizon Discovery, #PAR-034 and #R02-033) were cultured in McCoy’s 5A (Thermo Fisher) + 10% FBS, with incubation in a humidified, 37 °C/5% CO2 incubator. Cells were split 1–3 days prior to performing experiments and used at roughly 80% confluency. […] Cells were transfected according to the manufacturer’s protocol using FuGENE HD (Promega). NanoLuc fusion DNA was diluted into Transfection Carrier DNA (Promega) in Opti-MEM at a ratio of 1:9 (mass/mass), and FuGENE HD was added at a ratio of 1:3 (μg DNA:μL lipid). For experiments using WDR77, untagged WDR77 DNA (Promega) was used in place of Carrier DNA. Formed complexes were combined with cells resuspended to a density of 2 × 10^5 cells/mL in Opti-MEM + 1% FBS at a ratio of 1:20 (vol:vol). Cells were plated into a flask and incubated at 37 °C in a humidified 5% CO2 atmosphere for 18–24 h, before being lifted and seeded into 96-well non-binding surface-treated plates (Corning). Cells were seeded at a density of 2 × 10^5 cells/mL in Opti-MEM + 1% FBS in 100 μL (96-well). The BRET probe CBH-002 was prepared first as a 100× stock in 100% DMSO (Sigma) and then diluted to a 20× stock in NanoBRET Tracer Dilution buffer (Promega). Test compounds were prepared as 1000× stocks in 100% DMSO and diluted to 10× stocks in Opti-MEM to prepare working stocks. […] NanoBRET Complete 3x Substrate was prepared by combining Nano-Glo Substrate and Extracellular NanoLuc Inhibitor in Opti-MEM, according to the manufacturer’s protocol (Promega). NanoBRET Complete 3× Substrate was added to cells and plates were measured on either a PheraSTAR FSX equipped with 450 nm (donor) and 610 nm (acceptor) filters, or a GloMAX Discover equipped with 450/8 nm BP (donor) and 600 nm LP (acceptor) filters, using a 0.3 s integration time.
EC50 values were obtained by fitting the BRET probe and compound affinity curves to a sigmoidal four-parameter fit model in Graphpad Prism:1 Y=Ymin+Ymax−Ymin/1+10^LogEC50−Xh where h is the Hill Slope.

T1 sequence (O14744 whole entry, the tested form may be a part): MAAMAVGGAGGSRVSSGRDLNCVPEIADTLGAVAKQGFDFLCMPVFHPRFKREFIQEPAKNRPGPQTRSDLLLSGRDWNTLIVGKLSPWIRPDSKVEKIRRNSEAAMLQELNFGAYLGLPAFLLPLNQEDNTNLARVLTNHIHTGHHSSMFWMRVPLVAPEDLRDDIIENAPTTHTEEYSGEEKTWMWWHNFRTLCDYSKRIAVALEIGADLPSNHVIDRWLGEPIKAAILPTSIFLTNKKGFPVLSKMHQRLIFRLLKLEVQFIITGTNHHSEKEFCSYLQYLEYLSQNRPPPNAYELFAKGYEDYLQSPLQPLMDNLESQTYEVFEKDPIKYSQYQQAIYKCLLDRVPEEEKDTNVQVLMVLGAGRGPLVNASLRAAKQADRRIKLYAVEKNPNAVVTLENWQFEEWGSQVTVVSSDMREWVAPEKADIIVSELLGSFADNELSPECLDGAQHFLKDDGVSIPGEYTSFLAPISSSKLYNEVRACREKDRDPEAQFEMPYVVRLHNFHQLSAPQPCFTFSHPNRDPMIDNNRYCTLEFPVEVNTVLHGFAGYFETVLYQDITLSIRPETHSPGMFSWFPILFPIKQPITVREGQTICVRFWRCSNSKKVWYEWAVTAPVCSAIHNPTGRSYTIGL
NLuc-PRMT5, sequence (O14744 whole entry): as the sequence (O14744 whole entry, the tested form may be a part) above
NLuc-PRMT5, sequence (Q9BQA1 whole entry partner): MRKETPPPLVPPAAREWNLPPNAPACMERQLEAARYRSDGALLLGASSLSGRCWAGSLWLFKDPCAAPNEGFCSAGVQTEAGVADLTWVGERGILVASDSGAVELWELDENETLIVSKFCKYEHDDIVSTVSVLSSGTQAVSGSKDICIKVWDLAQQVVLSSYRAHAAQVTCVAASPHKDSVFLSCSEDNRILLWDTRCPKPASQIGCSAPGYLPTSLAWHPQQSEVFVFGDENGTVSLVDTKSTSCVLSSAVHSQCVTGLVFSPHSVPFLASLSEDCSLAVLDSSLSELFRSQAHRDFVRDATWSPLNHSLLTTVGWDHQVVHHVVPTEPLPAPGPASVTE

Q: What does the source list for `O=C(CCc1ccc2n1[B-](F)(F)[N+]1=C(c3ccc[nH]3)C=CC1=C2)NCCCCC(=O)N1CCC(Nc2cc(C(=O)NC[C@H](O)CN3CCc4ccccc4C3)ncn2)CC1` [CBH-002]?
A: EC50 (NLuc-PRMT5; CBH-002 EC50 at [SAM] 0 uM): 1070 nM; EC50 (NLuc-PRMT5; CBH-002 EC50 at [SAM] 0.001 uM): 1220 nM; EC50 (NLuc-PRMT5; CBH-002 EC50 at [SAM] 0.004 uM): 722 nM; EC50 (NLuc-PRMT5; CBH-002 EC50 at [SAM] 0.06 uM): 232 nM; EC50 (NLuc-PRMT5; CBH-002 EC50 at [SAM] 250 uM): 10 nM; EC50 (NLuc-PRMT5; CBH-002 EC50 at [SAM] 1000 uM): 10 nM; BRET signal, CBH-002 titration (Figure S3A) (NLuc-PRMT5; uM 0.00, [SAM] 0 uM): 59.75 and 46.60 and 39.12; BRET signal, CBH-002 titration (Figure S3A) (NLuc-PRMT5; uM 0.00, [SAM] 0.001 uM): 52.48 and 47.57 and 38.98; BRET signal, CBH-002 titration (Figure S3A) (NLuc-PRMT5; uM 0.00, [SAM] 0.004 uM): 78.50 and 49.28 and 41.20; BRET signal, CBH-002 titration (Figure S3A) (NLuc-PRMT5; uM 0.00, [SAM] 0.06 uM): 102.12 and 63.12 and 56.12; BRET signal, CBH-002 titration (Figure S3A) (NLuc-PRMT5; uM 0.00, [SAM] 250 uM): 116.71 and 100.65 and 98.69; BRET signal, CBH-002 titration (Figure S3A) (NLuc-PRMT5; uM 0.00, [SAM] 1000 uM): 100.00; BRET signal, CBH-002 titration (Figure S3A) (NLuc-PRMT5; uM -0.60, [SAM] 0 uM): 35.92 and 26.69 and 20.78; BRET signal, CBH-002 titration (Figure S3A) (NLuc-PRMT5; uM -0.60, [SAM] 0.001 uM): 38.65 and 26.89 and 21.61; BRET signal, CBH-002 titration (Figure S3A) (NLuc-PRMT5; uM -0.60, [SAM] 0.004 uM): 42.58 and 27.46 and 22.13; BRET signal, CBH-002 titration (Figure S3A) (NLuc-PRMT5; uM -0.60, [SAM] 250 uM): 110.40 and 94.49 and 89.50; BRET signal, CBH-002 titration (Figure S3A) (NLuc-PRMT5; uM -0.60, [SAM] 1000 uM): 106.63 and 91.94 and 90.40; BRET signal, CBH-002 titration (Figure S3A) (NLuc-PRMT5; uM -1.20, [SAM] 0 uM): 18.29 and 13.11 and 9.32; BRET signal, CBH-002 titration (Figure S3A) (NLuc-PRMT5; uM -1.20, [SAM] 250 uM): 100.06 and 80.70 and 74.62; BRET signal, CBH-002 titration (Figure S3A) (NLuc-PRMT5; uM -1.20, [SAM] 1000 uM): 101.04 and 80.00 and 77.33; BRET signal, CBH-002 titration (Figure S3A) (NLuc-PRMT5; uM -1.81, [SAM] 250 uM): 80.32 and 48.77 and 48.32; BRET signal, CBH-002 titration (Figure S3A) (NLuc-PRMT5; uM -1.81, [SAM] 1000 uM): 90.24 and 46.55 and 49.90; BRET, CBH-002 + DMSO (NL-PRMT5; uM 0.04576): 20.5721 and 25.8738 and 18.388; BRET, CBH-002 + GSK3326595 (NL-PRMT5; uM 0.04576): 1.809 and 2.429 and 2.181; BRET, CBH-002 + DMSO (NL-PRMT5; uM 0.52288): 24.1037 and 25.1393 and 24.5832; BRET, CBH-002 + GSK3326595 (NL-PRMT5; uM 0.52288): 4.538 and 4.814 and 4.399; BRET, CBH-002 + DMSO (NL-PRMT5; uM 1): 34.4603 and 46.2115 and 36.0512; BRET, CBH-002 + GSK3326595 (NL-PRMT5; uM 1): 12.5442 and 11.3355 and 11.5115; BRET, CBH-002 + DMSO (NL-PRMT5; uM -0.43136): 17.1332 and 19.3006 and 16.5836; BRET, CBH-002 + GSK3326595 (NL-PRMT5; uM -0.43136): 1.767 and 1.79 and 1.327; BRET, CBH-002 + DMSO (NL-PRMT5; uM -0.90849): 13.1405 and 15.4187 and 12.8329; BRET, CBH-002 + GSK3326595 (NL-PRMT5; uM -0.90849): 0.7756 and 0.9895 and 1.006; BRET, CBH-002 + DMSO (NL-PRMT5; uM -1.20952): 13.3172 and 13.6477 and 14.1021; BRET, CBH-002 + GSK3326595 (NL-PRMT5; uM -1.20952): 0.6778 and 0.9377 and 0.9652; BRET, CBH-002 + DMSO (NL-PRMT5; uM -1.68664): 10.4832 and 12.4293 and 10.2869; BRET, CBH-002 + GSK3326595 (NL-PRMT5; uM -1.68664): 1.144 and 1.071 and 1; BRET, CBH-002 + DMSO (NL-PRMT5; uM -1.98767): 7.5477 and 8.773 and 6.804; BRET, CBH-002 + GSK3326595 (NL-PRMT5; uM -1.98767): 0.4652 and 0.5599 and 0.5695; BRET, CBH-002 + DMSO (NL-PRMT5; uM -2.46479): 4.066 and 4.851 and 4.778; BRET, CBH-002 + DMSO (NL-PRMT5; uM -2.94191): 2.639 and 2.5785 and 2.4252
